Measured values: the NIST ThermoML archive (doi:10.1021/acs.jced.8b00595)
Numbers after ± are expanded uncertainties.

Conditions: 101.3 kPa, Liquid; for viscosity: Concentric cylinders viscometry; for mass density: Vibrating tube method

With `COC(C)(C)C` [2-methoxy-2-methylpropane] as the molecule, how does the viscosity (273.15 K) read?
The viscosity was 0.495 ± 0.025 mPa·s.

What about the mass density (273.15 K) of the same molecule?
Its mass density is 761.3 ± 2.3 kg/m3.

What about the viscosity (288.15 K) of the same molecule?
The viscosity was 0.421 ± 0.022 mPa·s.

What about the mass density (288.15 K) of the same molecule?
The mass density was 745.9 ± 2.3 kg/m3.

And the viscosity (298.15 K)?
Its viscosity is 0.381 ± 0.02 mPa·s.

And the mass density (298.15 K)?
Its mass density is 735 ± 2.2 kg/m3.

What about the viscosity (308.15 K) of the same molecule?
The viscosity was 0.328 ± 0.017 mPa·s.

And the mass density (308.15 K)?
Its mass density is 724.6 ± 2.2 kg/m3.
